We go through six compounds from publication PMC12779026, “α-Glycosidase activity of novel coumarin–triazole–coumarin dyads” (Turkish Journal of Chemistry, 2025).

What is called IC50 is the concentration at which inhibition is half-maximal. A higher IC50 goes with a need for much substance. By Ki is commonly meant a measure of affinity in units of concentration, obtained from inhibition or displacement. A high value points to a looser hold on the target.

Test [1] deals with α-glycosidase. The test can be described thus: α-Glycosidase inhibitory assay (spectrophotometric, 4-pNPG substrate, 405 nm). The test is classed as biochemical. Particulars: 0.5 U/mL α-glycosidase, 5 mM 4-pNPG, phosphate buffer pH 6.9, compounds 5–250 μM. The method, then:
The α-glycosidase inhibitory effects of the compounds were determined as described in the previous study. Acarbose (Sigma-Aldrich, A8980) was used as a reference compound in this study. The compounds were first dissolved in 25 mM DMSO and then diluted to 1 mM with phosphate buffer (0.1 M, pH: 6.9). In brief, the compounds and acarbose in phosphate buffer (0.1 M, pH: 6.9) were added to a 96-well plate at 5–250 μM. Then, 100 μL, 0.5 U/mL α-glycosidase (Sigma-Aldrich, G5003) was added to the wells. After 10 min, 50 μL of 5 mM p-nitrophenyl-α-D-glucopyranoside (4-pNPG) (Sigma-Aldrich, 487506) was added as a substrate to each well. After incubation for 10 min, spectrophotometric measurement was performed at 405 nm. The percentage inhibition rate of the compounds was calculated using the following formula: […]
In this formula, A0 and A1 represent the absorbance of the mixture in the absence and presence of the compound, respectively. In addition, IC50 values, which indicate the […] required to inhibit half of the enzyme activity, were calculated.

The target in test [2] is α-glycosidase. Put plainly: Kinetic analysis of α-glycosidase inhibition (Lineweaver–Burk and Dixon plots). The test is classed as biochemical. The method, then: To determine this, the final concentration of α-glycosidase was fixed at 0.5 U/mL. Then, different concentrations of 4-pNPG (2.5–20 mM) and varying concentrations of 4e (20 μM, 40 μM, and 100 μM) showing inhibitory potential were added to the wells. Following incubation, the absorbance values at 405 nm in the presence and absence of the compound were measured in the microplate reader. Lineweaver–Burk and Dixon plots were used to determine the inhibitor type and the inhibitory constant (Ki) of 4e. In the Lineweaver–Burk plot, the y-axis represents 1/V, the inverse of the reaction rate, while the x-axis represents 1/[S], the inverse of the substrate concentration. According to this plot, the points intersecting the y-axis give the value 1/Vmax. From here, the Vmax value, which represents the maximum reaction rate, can be determined. Km, a value indicating the enzyme’s interest in the substrate, can be determined from the points where the line intersects the x-axis. The type of inhibition is then determined by analyzing the changes in Vmax and Km. The Dixon graph is used to calculate the Ki value, which indicates the inhibitory potential of 4e.

Entries after “also recorded” stand apart in the source; their conditions may differ.

In test [1], `Cc1c(O)ccc2c(Cn3cc(COc4ccc5cc(-c6ccccc6)c(=O)oc5c4)nn3)cc(=O)oc12` [4a, 7-Hydroxy-8-methyl-4-((4-(((2-oxo-3-phenyl-2H-chromen-7-yl)oxy)methyl)-1H-1,2,3-triazol-1-yl)methyl)-2H-chromen-2-one] registered an IC50 of 95 ± 3.55 µM.

Compound `Cc1ccc(-c2cc3ccc(OCc4cn(Cc5cc(=O)oc6c(C)c(O)ccc56)nn4)cc3oc2=O)cc1` [4b, 7-Hydroxy-8-methyl-4-((4-(((2-oxo-3-(p-tolyl)-2H-chromen-7-yl)oxy)methyl)-1H-1,2,3-triazol-1-yl)methyl)-2H-chromen-2-one] displayed a half-inhibitory concentration (IC50) in test [1] of 123 ± 4.2 µM. The IC50 values of the last two compounds are within 1.5-fold of each other. As to `COc1ccc(-c2cc3ccc(OCc4cn(Cc5cc(=O)oc6c(C)c(O)ccc56)nn4)cc3oc2=O)cc1` [4c, 7-Hydroxy-4-((4-(((3-(4-methoxyphenyl)-2-oxo-2H-chromen-7-yl)oxy)methyl)-1H-1,2,3-triazol-1-yl)methyl)-8-methyl-2H-chromen-2-one], in test [1], the IC50 was 109 ± 2.4 µM. Same read-out and setting: in the case of `Cc1c(O)ccc2c(Cn3cc(COc4ccc5cc(-c6ccc(F)cc6)c(=O)oc5c4)nn3)cc(=O)oc12` [4d, 4-((4-(((3-(4-Fluorophenyl)-2-oxo-2H-chromen-7-yl)oxy)methyl)-1H-1,2,3-triazol-1-yl)methyl)-7-hydroxy-8-methyl-2H-chromen-2-one] it was 93.5 ± 1.7 µM. The compound `Cc1c(O)ccc2c(Cn3cc(COc4ccc5cc(-c6ccc([N+](=O)[O-])cc6)c(=O)oc5c4)nn3)cc(=O)oc12` [4e, 7-Hydroxy-8-methyl-4-((4-(((3-(4-nitrophenyl)-2-oxo-2H-chromen-7-yl)oxy)methyl)-1H-1,2,3-triazol-1-yl)methyl)-2H-chromen-2-one] yielded a concentration for half-maximal inhibition (IC50) in test [1] of 39 ± 0.77 µM. In test [2] (Dixon plot), this compound showed a Ki of 19.95 ± 0.15 µM. In addition, the “Type (of inhibition)” value in test [2] (Lineweaver–Burk plot, 4-pNPG 2.5–20 mM, 4e 20, 40, 100 μM) is “mixed type; also recorded: mixed inhibitor”. As for `C[C@H]1O[C@H](O[C@H]2[C@H](O)[C@@H](O)[C@@H](O[C@H]3[C@H](O)[C@@H](O)C(O)O[C@@H]3CO)O[C@@H]2CO)[C@H](O)[C@@H](O)[C@@H]1N[C@H]1C=C(CO)[C@@H](O)[C@H](O)[C@H]1O` (some centres unmarked) [Acarbose, reference compound], half-maximal inhibition in test [1] (IC50) was put at 64.5 ± 2.53 µM.
